Data published in the CheMixHub viscosity set.

Assay: xn = mol fraction of the nth substance listed

c1ccccc1 + Cc1ccccc1
Settings | viscosity [mPa·s]
293.15 K, 100 kPa, x2 = 0.25 | 0.631
293.15 K, 101 kPa, x1 = 0.28 | 0.584
293.15 K, 101 kPa, x1 = 0.54 | 0.597
293.15 K, 101 kPa, x1 = 0.78 | 0.607
293.15 K, 101.33 kPa, x1 = 0.1688 | 0.575
293.15 K, 101.33 kPa, x1 = 0.4383 | 0.592
293.15 K, 101.33 kPa, x1 = 0.5149 | 0.599
293.15 K, 101.33 kPa, x1 = 0.6583 | 0.606
293.15 K, 101.33 kPa, x1 = 0.7819 | 0.617
294.15 K, 100 kPa, x2 = 0.75 | 0.621
294.65 K, 101.33 kPa, x2 = 0.83 | 0.6216
294.75 K, 101.33 kPa, x2 = 0.202 | 0.6571
294.95 K, 101.33 kPa, x2 = 0.62 | 0.6245
295.55 K, 101.33 kPa, x2 = 0.508 | 0.6234
295.65 K, 101.33 kPa, x2 = 0.107 | 0.6473
295.85 K, 101.33 kPa, x2 = 0.272 | 0.6379
296.05 K, 101.33 kPa, x2 = 0.386 | 0.6282
297.35 K, 101.33 kPa, x2 = 0.719 | 0.6066
298.15 K, 101 kPa, x1 = 0.1 | 0.5546
298.15 K, 101 kPa, x1 = 0.1153 | 0.556
298.15 K, 101 kPa, x1 = 0.1272 | 0.555
298.15 K, 101 kPa, x1 = 0.2 | 0.5566
298.15 K, 101 kPa, x1 = 0.2022 | 0.5584
298.15 K, 101 kPa, x1 = 0.28 | 0.556
298.15 K, 101 kPa, x1 = 0.2965 | 0.5613
298.15 K, 101 kPa, x1 = 0.3 | 0.5595
298.15 K, 101 kPa, x1 = 0.3423 | 0.558
298.15 K, 101 kPa, x1 = 0.4 | 0.5632
298.15 K, 101 kPa, x1 = 0.4076 | 0.5651
298.15 K, 101 kPa, x1 = 0.5 | 0.5678
298.15 K, 101 kPa, x1 = 0.54 | 0.566
298.15 K, 101 kPa, x1 = 0.5405 | 0.5703
298.15 K, 101 kPa, x1 = 0.6 | 0.5732
298.15 K, 101 kPa, x1 = 0.7 | 0.5794
298.15 K, 101 kPa, x1 = 0.7024 | 0.579
298.15 K, 101 kPa, x1 = 0.7237 | 0.5802
298.15 K, 101 kPa, x1 = 0.78 | 0.574
298.15 K, 101 kPa, x1 = 0.8 | 0.5864
298.15 K, 101 kPa, x1 = 0.8593 | 0.5888
298.15 K, 101 kPa, x1 = 0.9 | 0.594
298.15 K, 101 kPa, x1 = 0.9275 | 0.594
298.15 K, 101 kPa, x1 = 0.9637 | 0.5968
298.15 K, 101.33 kPa, x1 = 0.0655 | 0.5543
298.15 K, 101.33 kPa, x1 = 0.0991 | 0.5554
298.15 K, 101.33 kPa, x1 = 0.2566 | 0.5591
298.15 K, 101.33 kPa, x1 = 0.3969 | 0.5652
298.15 K, 101.33 kPa, x1 = 0.5481 | 0.572
298.15 K, 101.33 kPa, x1 = 0.6618 | 0.5783
298.15 K, 101.33 kPa, x1 = 0.8029 | 0.5874
298.15 K, 101.33 kPa, x1 = 0.9087 | 0.5951
303.15 K, 101 kPa, x1 = 0.28 | 0.525
303.15 K, 101 kPa, x1 = 0.54 | 0.531
303.15 K, 101 kPa, x1 = 0.78 | 0.539
303.15 K, 101.3 kPa, x1 = 0.0529 | 0.5206
303.15 K, 101.3 kPa, x1 = 0.1185 | 0.522
303.15 K, 101.3 kPa, x1 = 0.2615 | 0.5257
303.15 K, 101.3 kPa, x1 = 0.3482 | 0.5277
303.15 K, 101.3 kPa, x1 = 0.4486 | 0.5312
303.15 K, 101.3 kPa, x1 = 0.5963 | 0.5372
303.15 K, 101.3 kPa, x1 = 0.7138 | 0.5426
303.15 K, 101.3 kPa, x1 = 0.8413 | 0.5482
303.15 K, 101.3 kPa, x1 = 0.9558 | 0.5538
303.15 K, 101.33 kPa, x1 = 0.1688 | 0.509
303.15 K, 101.33 kPa, x1 = 0.4383 | 0.523
303.15 K, 101.33 kPa, x1 = 0.5149 | 0.526
303.15 K, 101.33 kPa, x1 = 0.6583 | 0.529
303.15 K, 101.33 kPa, x1 = 0.7819 | 0.54
303.15 K, 101.33 kPa, x2 = 0.1 | 0.587
303.15 K, 101.33 kPa, x2 = 0.2 | 0.576
303.15 K, 101.33 kPa, x2 = 0.402 | 0.563
303.15 K, 101.33 kPa, x2 = 0.6 | 0.551
303.15 K, 101.33 kPa, x2 = 0.8 | 0.539
303.15 K, 101.33 kPa, x2 = 0.899 | 0.53
305.15 K, 101.33 kPa, x2 = 0.83 | 0.5517
305.35 K, 101.33 kPa, x2 = 0.508 | 0.5535
305.35 K, 101.33 kPa, x2 = 0.719 | 0.554
305.55 K, 101.33 kPa, x2 = 0.107 | 0.5782
305.55 K, 101.33 kPa, x2 = 0.62 | 0.5525
305.65 K, 101.33 kPa, x2 = 0.202 | 0.57
305.75 K, 101.33 kPa, x2 = 0.386 | 0.5579
308.15 K, 101 kPa, x1 = 0.54 | 0.502
308.15 K, 101 kPa, x1 = 0.78 | 0.506
308.15 K, 101.33 kPa, x2 = 0.1 | 0.564
308.15 K, 101.33 kPa, x2 = 0.2 | 0.556
308.15 K, 101.33 kPa, x2 = 0.402 | 0.541
308.15 K, 101.33 kPa, x2 = 0.6 | 0.532
308.15 K, 101.33 kPa, x2 = 0.8 | 0.518
308.15 K, 101.33 kPa, x2 = 0.899 | 0.507
312.85 K, 101.33 kPa, x2 = 0.107 | 0.5215
312.95 K, 101.33 kPa, x2 = 0.202 | 0.5201
312.95 K, 101.33 kPa, x2 = 0.272 | 0.5187
313.05 K, 101.33 kPa, x2 = 0.719 | 0.5077
313.15 K, 101 kPa, x1 = 0.28 | 0.472
313.15 K, 101 kPa, x1 = 0.54 | 0.476
313.15 K, 101 kPa, x1 = 0.78 | 0.48
313.15 K, 101.33 kPa, x1 = 0.1688 | 0.456
313.15 K, 101.33 kPa, x1 = 0.4383 | 0.463
313.15 K, 101.33 kPa, x1 = 0.6583 | 0.471
313.15 K, 101.33 kPa, x1 = 0.7819 | 0.479
313.15 K, 101.33 kPa, x2 = 0.1 | 0.55
313.15 K, 101.33 kPa, x2 = 0.2 | 0.529
313.15 K, 101.33 kPa, x2 = 0.402 | 0.517
313.15 K, 101.33 kPa, x2 = 0.6 | 0.505
313.15 K, 101.33 kPa, x2 = 0.8 | 0.491
313.15 K, 101.33 kPa, x2 = 0.899 | 0.483
313.25 K, 101.33 kPa, x2 = 0.386 | 0.51
313.35 K, 101.33 kPa, x2 = 0.508 | 0.5064
313.45 K, 101.33 kPa, x2 = 0.62 | 0.5057
313.45 K, 101.33 kPa, x2 = 0.83 | 0.5068
318.15 K, 101.33 kPa, x2 = 0.1 | 0.531
318.15 K, 101.33 kPa, x2 = 0.2 | 0.517
318.15 K, 101.33 kPa, x2 = 0.402 | 0.5
318.15 K, 101.33 kPa, x2 = 0.6 | 0.484
318.15 K, 101.33 kPa, x2 = 0.8 | 0.471
318.15 K, 101.33 kPa, x2 = 0.899 | 0.464
322.55 K, 101.33 kPa, x2 = 0.719 | 0.464
322.85 K, 101.33 kPa, x2 = 0.83 | 0.4607
322.95 K, 101.33 kPa, x2 = 0.202 | 0.4648
323.05 K, 101.33 kPa, x2 = 0.62 | 0.4581
323.15 K, 100 kPa, x2 = 0.25 | 0.431
323.15 K, 100 kPa, x2 = 0.5 | 0.427
323.15 K, 100 kPa, x2 = 0.75 | 0.424
323.15 K, 101.33 kPa, x1 = 0.1688 | 0.411
323.15 K, 101.33 kPa, x1 = 0.4383 | 0.416
323.15 K, 101.33 kPa, x1 = 0.5149 | 0.42
323.15 K, 101.33 kPa, x1 = 0.6583 | 0.423
323.15 K, 101.33 kPa, x1 = 0.7819 | 0.424
